The subject of series [1] is bovine brain microvessel endothelial cell (BBMEC) monolayers. The experiment in a line: Permeability of confluent BBMEC monolayers (FDX-3000 flux). It counts as cell-based. Conditions: for effect on BBMEC permeability in words: 0.1, 1 and 10 uM; for onset of permeability effect: earliest time point tested 15 min.
Method: The permeability effects of LPA and S1P were examined in various microvessel endothelial cell preparations. […] The BBMECs and the PBMEC were seeded (50,000 cells/cm2) on collagen coated, fibronectin treated, 6-well Transwell polycarbonate membrane inserts (0.4 um pore/24 mm diameter). The culture media consisted of: 45% minimum essential medium eagle (MEM), 45% Ham's P 12 nutrient mix, 10 mM HEPES, 13 mM sodium bicarbonate, 50 ug/ml gentamicin, 10% equine serum, 2.5 ug/ml amphotericin B, and 100 ug/ml heparin. The cell cultures were grown in a humidified 37° C. incubator with 5% CO2. The media was replaced every other day, and the BBMEC and PBMEC monolayers were used after reaching confluency (approximately 11-14 days).
Lyophilized LPA and S1P was purchased as lyophilized powder and was reconstituted into a 10 mM stock solution using 0.25% fatty acid-free bovine serum albumin (BSA) in assay buffer and kept at −20° C. until used. Working solutions of the phospholipids and C5a were prepared by diluting in assay buffer (0.25% BSA in the assay buffer).
Permeability studies were performed on confluent BBMEC and PBMEC, monolayers at 370 C. All the cells were pretreated with assay buffer for 30 minutes at 37° C. The control group was treated with assay buffer (0.25% BSA [fatty acid free]). For these studies, 1.5 ml of assay buffer was added to the lumina] (apical) side of the monolayer and 2.5 ml of assay buffer was added to the ablumenal (basolateral) side of the monolayer. Treatment groups received either LPA (0.1, 1, and 10 uM) or S1P (0.1, 1, 10 uM), alone and in combination, on both sides of the inserts. Permeability across the cell monolayers was determined by adding 10 uM fluorescein-labeled dextran (FDX-3000; MW 3000) to the donor (apical) compartment. Samples (100 ul) were removed from the receiver (basolateral) compartment at various times (0, 15, 30, 60 and 90 minutes). Samples (100 ul) were also taken from the donor compartment at the start (time 0) and conclusion (90 min) of the experiment. The concentration of FDX-3000 in the donor and receiver samples was measured spectrofluorometrically using a Shimadzu RFU5000 spectrofluorometer (Shimadzu Scientific Instruments, Columbia, Md., USA) with Ex (7 v) at 488 nm and Em (2 k.) at 510 nm. Permeability was expressed as the percent transfer of the fluorescent marker across the monolayers. The percent transfer was determined by dividing the cumulative concentration in the receiver compartment by the original concentration in the donor compartment at time zero. Permeability coefficients were calculated from the following formula:
V=volume of receiver chamber SA=surface area of cell monolayer Cd=conc of marker in the donor at time 0 Cr=the cumulative conc of marker in the receiver at the sample at time T
The test system of series [2] is blood-brain barrier. It counts as in vivo, mouse. Conditions: 15 minutes, mice. The protocol:
FIG. 12. Adult female Balb/c mice were anesthetized with ketamine xylazine cocktail, and given a bolus i.v. (tail vein) injection of the near infrared fluorescent dye, rhodamine 800 (3.2 μmol/kg) either alone or in the presence of LPA (1.0 mg/kg) or the combination of LPA and S1P (0.1 mg/kg). Mice were sacrificed at 15 minutes following injection of rhodamine 800 and following perfusion with formalin through cardiac puncture, the brain was removed and sliced (3 mm) coronally. The appearance of rhodamine 800 was visualized using an Odyssey near infrared imaging system. […] The rhodamine 800 is confined primarily to the cerebral spinal fluid present in the ventricles (the small bright regions observed in the various brain slices). […] This is evident by the intense bright fluorescence of the brain slices in the LPA treated mouse.

The subject of series [3] is porcine brain microvessel endothelial cells (PBMEC). Briefly: Permeability of porcine BMEC monolayers (FDX-3000 flux). It counts as cell-based. Conditions: LPA 0.1, 1 and 10 uM. The protocol: (§1) The permeability effects of LPA and S1P were examined in various microvessel endothelial cell preparations. Primary bovine and porcine brain microvessel endothelial cells (BBMEC and PBMEC, respectively) were collected from the gray matter of fresh cow and pig cerebral cortices using a combination of enzymatic digestion and centrifugal separation methods previously described. The BBMECs and the PBMEC were seeded (50,000 cells/cm2) on collagen coated, fibronectin treated, 6-well Transwell polycarbonate membrane inserts (0.4 um pore/24 mm diameter). […]
Permeability studies were performed on confluent BBMEC and PBMEC, monolayers at […]. […] Permeability across the cell monolayers was determined by adding 10 uM fluorescein-labeled dextran (FDX-3000; MW 3000) to the donor (apical) compartment. […] The concentration of FDX-3000 in the donor and receiver samples was measured spectrofluorometrically using a Shimadzu RFU5000 spectrofluorometer (Shimadzu Scientific Instruments, Columbia, Md., USA) with Ex (7 v) at 488 nm and Em (2 k.) at 510 nm. Permeability was expressed as the percent transfer of the fluorescent marker across the monolayers. The percent transfer was determined by dividing the cumulative concentration in the receiver compartment by the original concentration in the donor compartment at time zero. Permeability coefficients were calculated from the following formula: […]

Series [4] concerns blood-brain barrier. The experiment in a line: In vivo permeability study, 3H-methotrexate tissue distribution in mice. Also on record: species or system mouse. The protocol:
(§2) FIG. 11. Bar graph showing 20 fold increase in ^3H-methotrexate uptake in mouse brain when LPA is present. Adult female Balb/c mice were administered radiolabeled methotrexate via bolus tail vein injection. The radiolabeled methotrexate was given either alone, or in the presence of 1.0 mg/kg LPA. Fifteen minutes after injection of radiolabeled methotrexate, the mice were sacrificed and blood and tissue (brain, lung, kidney and liver) samples removed. The brain was homogenized and the cerebral microvascular endothelial cells were separated from the rest of the brain via centrifugation in 13% dextran solution at 7500×g for 15 minutes. Samples of the brain parachyma were removed for determination of radioactivity along with other tissue homogenates. Under normal conditions less than 1% of the injected dose of radiolabeled methotrexate was delivered to the brain. However, in the presence of LPA, an approximately 20-fold enhancement of radiolabeled methotrexate delivery to the brain was observed.
(§3) Female Balb/c mice were used to assess BBB permeability in vivo. Mice received a bolus injection (ml/kg) of ^3H-methotrexate (4 uCi total activity) via the tail vein. The radiolabeled methotrexate was given in combination with either LPA (1 mg/kg) or vehicle (0.25% bovine serum albumin in phosphate buffered saline solution). Fifteen minutes after the injection of methotrexate, mice were anesthetized using intraperitoneal injection of ketamine and xylazine and a sample of blood was removed by cardiac puncture. Following the blood sample, mice were sacrificed and various tissues including, the brain, lung, liver and kidney, were removed for determination of 3H-methotrexate. Blood samples were spun for 8-10 minutes and 100 uL of plasma was collected. Tissue samples were weighed and homogenized with double the volume of tissue solubilizing agent (Scintigest™, Fisher Scientific). A 200 uL aliquot of the tissue homogenate was used to analyse the tissue samples. The samples were then mixed with Ultima Gold™ (Perkin Elmer) scintillation cocktail and analysed by liquid scintillation counter (Perkin Elmer) to determine the amount of ^3H-methotrexate present in the blood and tissue. The distribution of ^3H-methotrexate was based on the ratio of the radioactivity in the tissue versus the radioactivity in the plasma sample.

The test system of series [5] is BBMEC monolayers. Briefly: Polarity studies: apical or basolateral application on BBMEC monolayers. It counts as cell-based, bovine. As to the method: as §1, with “diameter). The culture media consisted of: 45% minimum essential medium eagle (MEM), 45% Ham's P 12 nutrient mix, 10 mM HEPES, 13 mM sodium bicarbonate, 50 ug/ml gentamicin, 10% equine serum, 2.5 ug/ml amphotericin B, and 100 ug/ml heparin.” for “diameter).”
For studies examining the functional polarity of LPA and S1P […] of the phospholipids were applied to either the apical or basolateral side of confluent brain microvessel endothelial cell monolayers. There was 30 min AB pretreatment followed by treatment with either LPA and S1P on either apical and/or basolateral side and the flux of FDX-3000 across the monolayer was measured. Permeability across the cell monolayers was determined by adding 10 uM fluorescein-labeled dextran (FDX-3000; MW 3000) to the donor compartment. […] Samples were analyzed as described above.

The test system of series [6] is blood-brain barrier. The experiment in a line: Rat cranial window model, clearance of FDX 10 kDa. It counts as in vivo. Conditions: LPA 10 uM. The protocol: Cerebral vascular permeability was also evaluated using the rat cranial window model. For these studies male Wistar-Furth rats (n=15) were anesthetized (Inactin; thiobutabarbital 100 mg/kg ip), and a tracheotomy was performed. The rats were mechanically ventilated with room air and supplemental oxygen. A catheter was placed in the femoral artery for the measurement of systemic blood pressure and to obtain blood samples. A catheter was placed in the femoral vein for injection of intravascular tracer FDX 10 10a. […] Blood gases were also monitored and maintained within normal limits. […]
Permeability of the BBB was evaluated by calculating the clearance of FDX 10 kDa (10^−6 ml/s) from the area of parietal cortex exposed by the craniotomy, as previously described (Mayhan and Heistad, Am J. Physiol, 248: H712-H718, 1985; Mayhan, Brain Research, 927: 144-152, 2002). Briefly, the suffusate fluid was collected in glass test tubes with the aide of a fraction collector, and the concentration of FDX in the suffusate fluid during topical application of vehicle (saline) or LPA (10 μM) was determined using a spectrofluorometer. […] The clearance of 1010a FDX was calculated by multiplying the suffusate-to-plasma concentration by the suffusate flow rate (Mayhan and Heistad, Am J. Physiol, 248: H712-H718, 1985; Mayhan, Brain Research, 927: 144-152, 2002). […]

Series [7] is described as follows: In vivo permeability study, 3H-methotrexate tissue distribution in mice. Also on record: species or system mouse. Conditions: female, Balb/c, mouse, brain / plasma, intravenous, 4 uCi total activity; methotrexate alone; 15 minutes after systemic administration; read-out: brain to plasma ratio of 3H-methotrexate in control mice. As to the method:
as §2, §3

Setting [8] is: LPA 1 mg/kg i.v., 15 minutes, mice.

The values that follow come from patent US20110124604A1, “PHOSPHOLIPID RECEPTORS AS TARGETS FOR ENHANCING DRUG PERMEABILITY TO SELECTED TISSUES” (priority 2006, published 2011).

“Also recorded” adds a separate entry of the source.

With `CCO` [Ethanol, ethanol, reference compound], the “increase in BBMEC monolayer permeability” value in series [1] (ethanol 50 mM) was found to be 3 fold.
As for lysophosphatidic acid [LPA], the “rhodamine 800 delivery to the brain with LPA” value in series [2] (LPA 1.0 mg/kg i.v. with rhodamine 800 3.2 μmol/kg) is recorded as “substantially greater rhodamine 800 was delivered to the brain”. In addition, the “effect on porcine BMEC permeability in words” value in series [3] is reported as “concentration-dependent increase”. In addition, in series [4] (setting [8]), the “effect on 3H-methotrexate accumulation in liver or kidney” value is on record as “no significant increases; also recorded: no effect” and the “increase in 3H-methotrexate accumulation in the lung” value is “approximately 3 fold”. Besides, the “brain to plasma ratio of 3H-methotrexate with LPA” value in series [4] (LPA 1 mg/kg, 15 minutes after administration, mice) is recorded as “approximately 20%”. For the same compound, in series [4] (LPA, mouse), the “onset of action in the mouse” value was at most 15 min. The “effect on BBMEC permeability in words” value in series [1] (FDX-3000) is given as “concentration-dependent increase”. The “onset of permeability effect” value in series [1] (BBMEC) was at most 15 min. Moreover, the “increase in the permeability of BBMEC monolayers” value in series [1] (LPA 10 uM, FDX-3000) is 2 fold. Further, the “increase in monolayer permeability” value in series [1] (LPA 0.1 and 1 uM, FDX-3000, BBMEC) is given as around 1.5 fold. The “increase in permeability following apical or basolateral application” value in series [5] (LPA 10 uM, BBMEC) is on record as 2 fold. Also, in series [6], the “onset of effect on cerebral vascular permeability” value is on record as “rapid in onset (within minutes)” and the “reversal of permeability after LPA was stopped” value is “returned to baseline levels extremely rapidly; also recorded: equally rapid in returning to baseline permeability”.
With `CN(Cc1cnc2nc(N)nc(N)c2n1)c1ccc(C(=O)N[C@@H](CCC(=O)O)C(=O)O)cc1` [^3H-methotrexate, methotrexate, reference compound], the “share of the injected dose delivered to the brain” value in series [4] (radiolabeled methotrexate alone, normal conditions, mice) is “less than 1%”. The Kp at 15 min in series [7] is around 0.02.
On to `CCCCCCCCCCCCC/C=C/[C@@H](O)[C@@H](N)COP(=O)(O)O` [S1P, sphingosine 1-phosphate], for which the “effect of S1P on the LPA-induced increase in rhodamine 800 brain distribution” value in series [2] (LPA 1.0 mg/kg and S1P 0.1 mg/kg i.v.) is on record as “prevents the increases”. For the same compound, the “effect on BBMEC permeability in words” value in series [1] (FDX-3000) was “equally as robust decrease in permeability; also recorded: decreased the permeability of FDX-3000; also recorded: concentration-dependent decreases”. Besides, the “onset of permeability effect” value in series [1] (BBMEC) is at most 15 min. In addition, the “effect on the BBMEC permeability” value in series [1] (S1P 0.1 uM) is “no significant effect”. Further, in series [1] (S1P 1 and 10 uM), the “decrease in permeability of BBMEC” value is reported as 2 fold. Besides, the “effect of S1P on the permeability increase induced by LPA” value in series [1] (S1P (10 uM) co-administered with LPA, BBMEC) is on record as “completely overcome; also recorded: totally prevented; also recorded: abolished”. Further, the “effect of S1P on the permeability effect of ethanol” value in series [1] (ethanol 50 mM and S1P, BBMEC) is “abolished; also recorded: decrease in permeability”. The “effect of S1P on the permeability effect of horse serum” value in series [1] (horse serum 10% and S1P, BBMEC) was “abolished; also recorded: decreased the permeability effect”. Moreover, in series [1] (in the presence of S1P), the “duration of permeability effect” value was determined as 90 min. Also, in series [5] (S1P 10 uM), the “decrease in BBMEC monolayer permeability, applied apically or basolaterally” value is “approximately 2 fold”.
